According to paper PMC3199943, “Screening the MayBridge Rule of 3 Fragment Library for Compounds That Interact with the Trypanosoma brucei myo-Inositol-3-Phosphate Synthase and/or Show Trypanocidal Activity” (Molecular Biology International, 2011):
Read-outs that look alike come from different tables or passages of the source.

Columns and labels:
HeLa cells = experiment: cells; details: for viability at 500 µM / CC50: Homo sapiens, HeLa; for viability at 500 µM: 65 h; for HeLa Cells Alamar Blue: Supplementary Table 1, compound 0.5 mM, percentage of controls, mean ± SD (n=3) or SE (n=2); for CC50: read-out: HeLa ED50
Outline: (§1)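 Seed HeLa/A549 at 2 × 10^4 cells/well in DMEM/10% FCS/2 mM L-Gln; treat ~65 h; add Alamar Blue, 5 h more.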

TbINO1 = molecular target: T1, TbINO1 (Trypanosoma brucei brucei, UniProt Q5QQ46); experiment: biochemical; assay type: binding
T1 sequence (Q5QQ46 1-528): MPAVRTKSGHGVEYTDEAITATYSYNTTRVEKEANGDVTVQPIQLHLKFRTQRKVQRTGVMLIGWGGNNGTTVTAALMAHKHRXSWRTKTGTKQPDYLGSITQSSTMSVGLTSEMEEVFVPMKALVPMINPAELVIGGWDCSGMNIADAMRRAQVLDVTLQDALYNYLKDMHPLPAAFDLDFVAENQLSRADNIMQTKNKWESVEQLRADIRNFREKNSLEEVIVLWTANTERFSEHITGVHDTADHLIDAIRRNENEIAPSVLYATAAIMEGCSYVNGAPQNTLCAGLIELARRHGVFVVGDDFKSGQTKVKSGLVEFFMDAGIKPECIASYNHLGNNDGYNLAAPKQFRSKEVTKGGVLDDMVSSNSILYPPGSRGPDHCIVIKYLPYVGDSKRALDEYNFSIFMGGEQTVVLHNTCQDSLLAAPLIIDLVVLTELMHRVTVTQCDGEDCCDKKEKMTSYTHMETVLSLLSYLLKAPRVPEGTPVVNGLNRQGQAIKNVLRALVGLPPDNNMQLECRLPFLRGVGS

A549 cells = experiment: Cytotoxicity against A549 cells, Alamar Blue; assay type: cell-based; details: Supplementary Table 1, compound 0.5 mM, percentage of controls (n=1); for viability at 500 µM: Homo sapiens, A549, 65 h
Outline: as §1

[1] = read-out: HeLa Cells Alamar Blue
[2] = read-out: HeLa Cells Alamar Blue (% survival)
[3] = Supplementary Table 1, compound 1mM, mean ± SD from Boltzman curve fitting
[4] = read-out: Tb Ino1 Tm Shift [˚C]

Structure (SMILES)	viability at 500 µM (HeLa cells; [1]) [%]	viability at 500 µM (A549 cells) [%]	ΔTm at 1000 µM (TbINO1; [4]) [°C]	also measured
CC(=O)c1c(O)cccc1O [compound 204, 1-(2,6-dihydroxyphenyl)ethan-1-one]	36.3 ± 12.5	34.4	–	viability at 500 µM (HeLa cells; [2]): 36.3 ± 12.5%; ΔTm at 1000 µM (TbINO1; read-out: TbIno1 Tm shift [°C]): 2.35 ± 0.06 °C
CC1(C(=O)O)CC2C=CC1C2 (centres unmarked) [compound 205, 2‐methylbicyclo[2.2.1]hept‐5‐ene‐2‐carboxylic acid]	–	–	–	HeLa Cells Alamar Blue (HeLa cells): 92.1 ± 17.2 percentage of controls; Tb Ino1 Tm Shift [˚C] (TbINO1; [3]): 0.08 ± 0.08 °C; A549 Cells Alamar Blue (A549 cells): 53.8 percentage of controls
CC(=O)N1CCC(C#N)CC1 [compound 207, 1‐acetylpiperidine‐4‐carbonitrile]	90 ± 2.9	65.3	0.03 ± 0.07	–
N#Cc1c(N)cccc1Cl [compound 210, 2‐amino‐6‐chlorobenzonitrile]	91.5 ± 10.8	89.2	0.15 ± 0.08	–
Clc1ccc(Cl)s1 [compound 211, 2,5‐dichlorothiophene]	99.6 ± 4.1	117	0.02 ± 0.08	–
COC(=O)c1cc(C)[nH]c1C [compound 214, methyl 2,5‐dimethyl‐1H‐pyrrole‐3‐carboxylate]	–	–	–	HeLa Cells Alamar Blue (HeLa cells): 74.8 ± 18 percentage of controls; Tb Ino1 Tm Shift [˚C] (TbINO1; [3]): 0.78 ± 0.06 °C; A549 Cells Alamar Blue (A549 cells): 64.4 percentage of controls
NC(=S)Nc1ccncc1 [compound 215, N‐(4‐pyridyl)thiourea]	98.3 ± 16.5	59.6	0.03 ± 0.08	–
Cn1nc(C(C)(C)C)cc1N [compound 216, 3‐(tert‐butyl)‐1‐methyl‐1H‐pyrazol‐5‐amine]	–	–	–	HeLa Cells Alamar Blue (HeLa cells): 80.1 ± 11.3 percentage of controls; Tb Ino1 Tm Shift [˚C] (TbINO1; [3]): 0.15 ± 0.07 °C; A549 Cells Alamar Blue (A549 cells): 56.7 percentage of controls
N#Cc1cc(Cl)ccc1O [compound 218, 5‐chloro‐2‐hydroxybenzonitrile]	92 ± 11.8	67.7	0.43 ± 0.07	–
OCc1cn2ccsc2n1 [compound 221, imidazo[2,1‐b]thiazol‐6‐ylmethanol]	107 ± 7.6	99.5	0.09 ± 0.23	–
N#CCCNCC1CCCO1 (centres unmarked) [compound 224, 3‐[(tetrahydrofuran‐2‐ylmethyl)amino]propanenitrile]	–	–	–	HeLa Cells Alamar Blue (HeLa cells): 96.5 ± 13.7 percentage of controls; Tb Ino1 Tm Shift [˚C] (TbINO1; [3]): 0.21 ± 0.09 °C; A549 Cells Alamar Blue (A549 cells): 60 percentage of controls
Clc1ccc2nonc2c1 [compound 225, 5‐chloro‐2,1,3‐benzoxadiazole]	91.4 ± 15.1	68.9	0.81 ± 0.19	–
CC(=O)c1sc(C)nc1C [compound 226, 1‐(2,4‐dimethyl‐1,3‐thiazol‐5‐yl)ethan‐1‐one]	–	–	–	HeLa Cells Alamar Blue (HeLa cells): 85.8 ± 10.4 percentage of controls; Tb Ino1 Tm Shift [˚C] (TbINO1; [3]): 0.37 ± 0.1 °C; A549 Cells Alamar Blue (A549 cells): 62 percentage of controls
Cc1cc(C(N)=S)n(C)n1 [compound 227, 1,3‐dimethyl‐1H‐pyrazole‐5‐carbothioamide]	–	–	–	HeLa Cells Alamar Blue (HeLa cells): 106.7 ± 5.8 percentage of controls; Tb Ino1 Tm Shift [˚C] (TbINO1; [3]): 0.57 ± 0.1 °C; A549 Cells Alamar Blue (A549 cells): 50.9 percentage of controls
Cc1nc(C(C)(C)C)cs1 [compound 229, 4‐(tert‐butyl)‐2‐methyl‐1,3‐thiazole]	108 ± 11.8	65.6	0.23 ± 0.07	–
Cc1ccc(CN)cc1Cl [compound 233, 3‐chloro‐4‐methylbenzylamine]	91.7 ± 12.6	163	0.11 ± 0.08	–
CC(=O)c1ccc(F)c(F)c1 [compound 234, 1‐(3,4‐difluorophenyl)ethan‐1‐one]	90.3 ± 14	73.9	0.14 ± 0.08	–

Structure (SMILES)	viability at 500 µM (HeLa cells; [1]) [%]	viability at 500 µM (A549 cells) [%]	ΔTm at 1000 µM (TbINO1; [4]) [°C]	also measured
c1cc(-c2ccncc2)ccn1 [compound 235, 4,4'‐dipyridyl]	63.7 ± 17.4	54.8	–	ΔTm at 1000 µM (TbINO1; Supplementary Table 1, compound 1mM, mean ± SD from Boltzman curve fitting, read-out: Tb Ino1 Tm Shift [˚C]): 0.2 ± 0.07 °C
O=C(O)CCc1cccs1 [compound 237, 3‐(2‐thienyl)propanoic acid]	113 ± 7.8	70.9	0.22 ± 0.07	–
COC(=O)Cc1ccsc1 [compound 238, methyl 2‐(3‐thienyl)acetate]	111 ± 9.9	64.7	0.39 ± 0.07	–
Cc1csc(N)c1C(N)=O [compound 239, 2-amino-4-methylthiophene-3-carboxamide]	95.8 ± 9.3	69.8	–	viability at 500 µM (HeLa cells; [2]): 95.8 ± 9.3%; CC50 (HeLa cells): > 20000 µM; ΔTm at 1000 µM (TbINO1; read-out: TbIno1 Tm shift [°C]): 2.05 ± 0.05 °C
COC(=O)c1sccc1N [compound 241, methyl 3‐aminothiophene‐2‐carboxylate]	94.5 ± 13	108	0.38 ± 0.09	–
COC(=O)c1ccsc1N [compound 242, methyl 2‐aminothiophene‐3‐carboxylate]	37 ± 6.1	80.5	0.34 ± 0.08	–
COC(=O)c1cscc1N [compound 244, methyl 4‐aminothiophene‐3‐carboxylate]	78.7 ± 17.9	90.3	0.61 ± 0.11	–
COC(=O)c1sccc1O [compound 247, methyl 3‐hydroxythiophene‐2‐carboxylate]	–	–	–	HeLa Cells Alamar Blue (HeLa cells): 95.4 ± 6.1 percentage of controls; Tb Ino1 Tm Shift [˚C] (TbINO1; [3]): 0.2 ± 0.07 °C; A549 Cells Alamar Blue (A549 cells): 108.7 percentage of controls
c1cncc(Cn2cccc2)c1 [compound 248, 3‐(1H‐pyrrol‐1‐ylmethyl)pyridine]	91.3 ± 11.9	86.6	0	–
Nc1cccc(-n2cccc2)c1 [compound 251, 3‐(1H‐pyrrol‐1‐yl)aniline]	80.5 ± 3.4	79.8	0.15 ± 0.05	–
Cc1nc(C(N)=S)cs1 [compound 252, 2‐methyl‐1,3‐thiazole‐4‐carbothioamide]	90.3 ± 10.7	102	0.7 ± 0.07	–
OCc1ccc2ccccc2n1 [compound 256, 2-quinolinylmethanol]	99.2 ± 19.5	119	–	viability at 500 µM (HeLa cells; [2]): 99.2 ± 19.5%; CC50 (HeLa cells): 836 ± 68 µM; ΔTm at 1000 µM (TbINO1; read-out: TbIno1 Tm shift [°C]): 2.2 ± 0.06 °C
Nc1ccc(-c2ccco2)cc1 [compound 257, 4‐(2‐furyl)aniline]	17 ± 12.7	75.7	0.83 ± 0.04	CC50 (HeLa cells): 114 ± 8 µM
Cc1cc(O)nc2ccccc12 [compound 258, 4‐methyl‐2‐quinolinol]	92.7 ± 13.6	90.7	0.17 ± 0.06	–
Cc1cc2c(N)cccc2nn1 [compound 261, 3-methylcinnolin-5-amine]	62.5 ± 14.7	74.1	–	viability at 500 µM (HeLa cells; [2]): 62.5 ± 14.7%; CC50 (HeLa cells): 726 ± 64 µM; ΔTm at 1000 µM (TbINO1; read-out: TbIno1 Tm shift [°C]): 1.83 ± 0.11 °C
Nc1ccccc1-n1ccnc1 [compound 262, 2‐(1H‐imidazol‐1‐yl)aniline]	66.5 ± 16.1	76	0.62 ± 0.08	–
Nc1cccc(-c2cnco2)c1 [compound 267, 3‐(1,3‐oxazol‐5‐yl)aniline]	75 ± 15.2	79.8	0.13 ± 0.09	–
